PubChem BioAssay AID493002 (Sanford-Burnham Center for Chemical Genomics, 2010)

Tested on: S. cerevisiae tim23-1 mutant growth, luminescence
Test: potency against tim23-1 yeast growth – luminescence, uHTS hits, dose response (AID 493002);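 also: yeast grown roughly 22 hours at 25 °C before the luminescence read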

| SMILES | IC50 [µM] |
| --- | --- |
| Cc1cccc(OCCN2C(=O)C(=O)c3cc(C)ccc32)c1 | 9.52 |
| O=C(Nc1cn(-c2ccccc2)nc1-c1cccs1)c1ccco1 | 29 |
| COc1ccc2c(C(=O)CCl)c[nH]c2c1 | 22.5 |
| C[C@@]12C(=O)Nc3ccc(Br)cc3C(=O)N1[C@H]1c3ccccc3OC[C@@H]1[C@@H]2c1ccccc1 | 2.66 |
| Brc1ccc(OCc2nnnn2-c2ccccc2)cc1 | 11.3 |
| COCCn1c(C)cc(C(=O)COC(=O)c2ccc([N+](=O)[O-])o2)c1C | 6.98 |
| CSc1nnc(C(C)(C)C)c(=O)n1/N=C/c1ccccc1 | 13.6 |
| O=c1cc(C(Cl)(Cl)Cl)oc2c1ccc1ccccc12 | 2.2 |
| O=C(Nc1cccc(NC(=O)c2ccco2)c1)c1cccc(Br)c1 | 13.1 |
| Cc1ccc(-c2nc3n(n2)Cc2ccccc2-3)cc1 | 15.4 |
| CCCCC(=O)NC(c1ccc(Cl)cc1)c1ccc2cccnc2c1O (stereo not given) | 9.68 |
| C=C1CCc2c([nH]c3ccc(OCC(C)C)cc23)C1=O | 3.33 |
| Cn1c(C(=O)Nc2ccc3c(c2)OCCO3)cc2sccc21 | 12.1 |
| Cc1ccc(-c2nn(-c3ccccc3)cc2NC(=O)CCl)cc1 | 4.31 |
| c1ccc(-c2cc3cc4c(cc3cn2)OCO4)cc1 | 17 |
| CC[C@@]1(c2ccccc2OC)ON(c2ccccc2C(F)(F)F)C1=O | 5.91 |
| O=c1c2cc(Br)ccc2nc(-c2ccccc2)n1O | 19.1 |
| Cc1ccc(Nc2nc(-c3cccnc3)nc3ccccc23)cc1 | 5.21 |
| Cc1cccc(CN2C(=O)/C(=C\c3ccc(C(=O)NCCCN4CCN(C)CC4)cc3)Oc3ccccc32)c1 | 17.5 |
| N#C/C(=C\c1ccc(Cl)cc1)C(=O)Nc1cccnc1 | 5.72 |
| O=C(N/N=C/c1coc2ccc(Cl)cc2c1=O)c1ccncc1 | 22.3 |
| O=C(Nc1ccc(F)c(Cl)c1)C1CC2CCC1C2 (stereo not given) | 21.6 |
| CCOc1ccc(N=C(C)C2=C(O)c3ccccc3C2=O)cc1 | 11.2 |
| Cc1ccc2nc(N3C(=O)CNC3=S)sc2c1 | 3.73 |
| CCOC(=O)c1cccnc1SCc1cc(=O)n2ccccc2n1 | 9.96 |

| SMILES | IC50 [µM] |
| --- | --- |
| CC(C)CN(C(=O)c1ccc2c(c1)OCCO2)c1c(N)n(Cc2ccccc2)c(=O)[nH]c1=O | 14.2 |
| CC1c2[nH]c3ccccc3c2CCN1C(=O)Nc1ccccc1 (stereo not given) | 12.1 |
| CCN(CC)c1ccc(/C=C2/C(=O)ON=C2C)cc1 | 14.6 |
| CCOC(=O)c1c(NC(=O)CSc2nnnn2-c2ccc(OC)cc2)sc(C)c1C | 4.12 |
| CCCCc1cc(O)c(CCCC)c(O)c1 | 3.69 |
| COc1cc(C2CC(c3cccs3)=NN2C(=O)CCl)ccc1OC(F)F (stereo not given) | 21.9 |
| O=S(=O)(Nc1cccc(-c2nc3cccnc3s2)c1)c1ccc2c(c1)OCCO2 | 11.6 |
| O=C(c1cccnc1)C1Cc2ccccc2C1=O (stereo not given) | 9.94 |
| CCc1sc(C(=O)Nc2nccs2)cc1C | 16 |
| COc1ccc(NC(=O)C#Cc2ccccc2)cc1 | 6.06 |
| Cn1c(-c2sc3ccccc3c2Cl)n[nH]c1=S | 7.61 |
| Cc1ccc(S(=O)(=O)n2ccc(OC(=O)c3cccs3)n2)cc1 | 8.39 |
| O=Cc1cn(CCOc2ccccc2F)c2ccccc12 | 13 |
| COc1cc(NC(=O)c2cccs2)ccc1NC(=O)c1ccccc1Cl | 6.75 |
| Nc1ccc(N=Nc2ccccc2O)c(N)c1 | 15.3 |
| O=C(N/N=C/c1ccco1)c1cc2ccccc2o1 | 8.47 |
| O=c1oc(-c2ccc(Br)o2)nc2ccccc12 | 9.8 |
| Cc1oc2cc(O)cc(O)c2c(=O)c1-c1ccc2c(c1)OCCCO2 | 8.84 |
| CCOC(=O)c1c(C)oc2c(F)c(F)c(F)c(F)c2c1=O | 13.1 |
| O=C(Nc1ccc2nc(-c3ccccc3)[nH]c2c1)c1cccs1 | 3.62 |
| Cc1ccc2[nH]c3ccccc3c(=O)c2c1 | 13.6 |
| O=C(N/N=C/c1cc(Br)cc(Br)c1O)c1cccc(N2CCCC2=O)c1 | 6.37 |
| Cc1ccc2occ(/C=N/NC(=O)c3ccccc3Br)c(=O)c2c1 | 9.7 |
| O=C(Nc1ccc(Br)c(Cl)c1)C1CC1 | 18.3 |
| C/C(=N\Nc1cc(N2CCCCC2)nc(C)n1)c1ccc(Br)cc1 | 14.2 |

| SMILES | IC50 [µM] |
| --- | --- |
| COc1ccc(C2=NNC(c3cccs3)=Nc3ccc(OC)cc32)cc1 | 11.1 |
| CC1=CC(C)(C)N(C(=O)c2ccc(F)cc2)c2cc3c(cc21)OCO3 | 14.3 |
| COc1cc2ccccc2cc1C(=O)Nc1ccc(C)cc1 | 12.5 |
| O=C(CN1C(=O)S/C(=C/c2ccncc2)C1=O)Nc1ccccc1 | 13.5 |
| CCn1ncc([N+](=O)[O-])c1C(=O)Nc1nc2cccc(C)c2s1 | 17.7 |
| CCc1nc(SCc2ccccn2)c2c(=O)n(C)c(=O)n(C)c2n1 | 16.3 |
| CCOC(=O)c1cnc(-n2nc(C)cc2C)nc1NCCc1ccccc1 | 9.75 |
| COc1cc2c3c(c1)C(C)CC(C)(C)N3C(=O)C2=O (stereo not given) | 27.2 |
| Cc1cc(C(=O)Nc2ccc(Br)cn2)sc1C | 21.1 |
| N#C/C(=C\c1ccc(O)cc1)c1nc2ccccc2o1 | 6.42 |
| CCCCCCSC1=C(C#N)C(c2ccccc2)CC(=O)N1 (stereo not given) | 13.4 |
| O=C(COC(=O)CC1CCCC1)Nc1ccc(Cl)cc1 | 13.2 |
| O=C(Nc1ccc2oc(-c3ccccc3)nc2c1)c1cccs1 | 0.39 |
| Nc1ccc2nc(SCc3ccccc3F)sc2c1 | 7.18 |
| O=C(Nc1ccc2oc(-c3ccccc3)nc2c1)c1cccnc1 | 5.53 |
| Cc1ccc(-c2nnc(N3CCN(c4ccccn4)CC3)c3ccccc23)cc1 | 7.64 |
| Cc1ccc(OCc2cc(C(=O)NC3CCCCC3)no2)cn1 | 15.4 |
| Cn1c(=O)c(C(=O)Nc2ncccn2)c(O)c2ccccc21 | 8.49 |
| Cc1ccc(-c2nnc(NC3CCCC3)s2)cc1 | 26.6 |
| Cc1ccc(S(=O)(=O)N[C@@H](Cc2ccccc2)C(=O)CCl)cc1 | 2.18 |
| COc1ccccc1C(=O)Nc1nnc(-c2ccc3c(c2)CCCC3)o1 | 13.8 |
| Oc1ccc(Br)cc1/C=N/Nc1ccccn1 | 6.87 |
| Cc1ccc(Nc2nc(Cl)nc(NC(C)(C)C)n2)cc1 | 16 |
| Nc1cccc(-c2nc3ccc(C(=O)c4ccccc4)cc3[nH]2)c1 | 10.7 |
| O=c1c(O)c(-c2ccccc2)oc2cc(O)cc(O)c12 | 8.56 |

| SMILES | IC50 [µM] |
| --- | --- |
| O=c1c(-c2ccc3c(c2)OCCO3)c(C(F)(F)F)oc2cc(O)cc(O)c12 | 12.6 |
| Cc1ccc(C(=O)NC(=S)NCc2ccccc2)cc1 | 12.1 |
| COC(=O)c1cccc(-c2ccc(C(c3c(C)[nH][nH]c3=O)c3c(C)[nH][nH]c3=O)o2)c1 | 15.1 |
| Brc1ccc(-n2cnc(-c3ccccc3)c2)cc1 | 12.5 |
| NC(N)=N/N=C/c1ccc(OCc2ccccc2Cl)cc1 | 18 |
| Cn1cc(C(=O)c2ccc(Cl)cc2)cc1-c1nc2ccccc2n1C | 12.3 |
| O=C(CSc1nnnn1Cc1ccccc1)c1ccc(F)cc1 | 20 |
| O=C(CC(=O)c1c(F)cccc1Cl)c1ccccc1O | 15.7 |
| COc1ccc2c(c1)sc1nc(-c3ccccc3)cn12 | 6.68 |
| N#C/C(=C\c1ccc(Cl)cc1)C(=O)NC1CC1 | 7.09 |
| Cc1ccc2nc(NC(=O)Cn3nc(C)c([N+](=O)[O-])c3C)sc2c1 | 6.13 |
| O=C(N/N=C/c1cccc(F)c1)c1csc2c1CCCC2 | 11.4 |
| O=C(NC(=O)c1ccccc1F)OCc1ccc(Cl)cc1Cl | 11.9 |
| O=C(Nc1ccccc1)C1C(c2ccccc2)C1(Cl)Cl (stereo not given) | 14.9 |
| C=CCNC(=O)c1ccc2c3n(nc2c1)-c1ccc(Cl)cc1CO3 | 6.9 |
| O=C(Nc1nccs1)c1ccc(Cl)s1 | 7.48 |
| Cc1nc2scc(C)n2c(=O)c1S(=O)(=O)Nc1ccc(OC(F)(F)F)cc1 | 6.96 |
| COc1cc2c(cc1OC)/C(=C/c1ccc(Cl)cc1)C(=O)OC2 | 8.86 |
| N#C/C(=C\c1c[nH]c2ccccc12)C(=O)NC1CCCC1 | 31.5 |
| Cc1ccn(-c2ccc(NC(=O)c3cccs3)cc2)n1 | 7.04 |
| COc1cc(/C=N/NC(=O)c2ccc(N)cc2)ccc1OC(=O)c1cccc(C)c1 | 9.83 |
| O=C(Nc1ccc(Br)c(Cl)c1)c1ccco1 | 18.4 |
| O=C1c2ccccc2C(=O)N1c1nc(-c2cccs2)cs1 | 3.63 |
| CC(C)(C)c1ccc(Oc2ccc(N)cc2)cc1 | 4.63 |
| Cc1ccc(NCc2nc3ccccc3n2CCOc2ccccc2)cc1 | 10.4 |

| SMILES | IC50 [µM] |
| --- | --- |
| COc1ccc(/C=N/NC(=O)c2cccs2)c2ccccc12 | 13.7 |
| O=C1c2cccc3c(Cl)ccc(c23)C(=O)N1O | 9.64 |
| CCN(CC)c1ccc(/C=N/NC(=O)c2ccc3c(c2)OCCO3)cc1 | 11.3 |
| CC1=C(C)/C(=N/OC(=O)c2cccc([N+](=O)[O-])c2)C=CC1=O | 8.03 |
| C/C(=N\Nc1nc2ccccc2s1)c1cccs1 | 9.27 |
| Nc1ccc(C(=O)Nc2nc3ccccc3s2)cc1 | 10.4 |
| O=C(Nc1ccc2nc(-c3ccc(Br)o3)[nH]c2c1)c1ccco1 | 5.88 |
| Cc1ccc(NC(=O)c2cc(C)n(-c3ccccc3)c2C)cc1 | 21 |
| Cc1nc(-c2ccc(NC(=O)c3ccccc3)cc2)cs1 | 13 |
| Cc1csc2nc(O)c(C(=O)NCCCc3ccccc3)c(=O)n12 | 7.87 |
| COc1ccc(C(=O)N2CCc3ccc(NC(=O)c4ccccn4)cc3C2)cc1F | 23.8 |
| Cn1nc(C(F)(F)F)c2cc(NC(=O)OCC(C)(C)C)sc21 | 28.2 |
| COc1ccc(CCN(/C=C2\Sc3ccccc3C2=O)C(C)=O)cc1OC | 14 |
| CNC(=S)N/N=C/c1cc(Br)cc(Br)c1O | 3.14 |
| Cc1ccc(CS(=O)(=O)c2ncc(Cl)c(C(=O)Nc3ccc(OC(F)F)cc3)n2)cc1 | 1.86 |
| c1ccc(-n2nc3c(ccc4cnnc43)[nH]2)cc1 | 24.5 |
| COC(=O)N/N=C/c1ccc(-c2cc(Cl)cc(Cl)c2)o1 | 8.73 |
| CC(C)(C)c1csc(NC(=O)c2ccc(Br)o2)n1 | 9.04 |
| CC1CCN(c2nnc(N3CCC(C)CC3)c3ccccc23)CC1 | 34.9 |
| NS(=O)(=O)c1ccc(N=Cc2c(O)n(C3CCCCC3)c(=O)n(C3CCCCC3)c2=O)cc1 | 14.4 |
| CC(C)Cn1cnc2c(c(-c3ccccc3)c(-c3ccccc3)n2Cc2ccco2)c1=N | 9.48 |
| O=S(=O)(CCSc1ccccn1)c1nc2ccccc2s1 | 10 |
| CC(C)Oc1cc(O)c2c(=O)c(-c3ccc(O)cc3)coc2c1 | 7.38 |
| O=C(Nc1cccc(F)c1)N1CC=C(c2ccc(Cl)cc2)CC1 | 12.8 |
| COc1ccc(CCn2c(C(C)C)nc3oc4ccccc4c(=O)c3c2=O)cc1 | 14.2 |
